Data: patent US20160008339A1, “PSORALEN DERIVATIVES FOR PREVENTING OR TREATING HEART FAILURE OR CARDIAC HYPERTROPHY” (MAX-DELBRUCK-CENTRUM FUR MOLEKULARE MEDIZIN, priority 2012, published 2016)

How the values were obtained:
[1] = target: T1, AKAP-Lbc (guanine nucleotide exchange on RhoA) (Homo sapiens, UniProt Q12802); test: RhoGEF nucleotide exchange assay (GDP against mGTP on RhoA); settings: IC50 (fifty percent inhibition of nucleotide exchange), 15 min
T1 sequence (Q12802 1994-2333): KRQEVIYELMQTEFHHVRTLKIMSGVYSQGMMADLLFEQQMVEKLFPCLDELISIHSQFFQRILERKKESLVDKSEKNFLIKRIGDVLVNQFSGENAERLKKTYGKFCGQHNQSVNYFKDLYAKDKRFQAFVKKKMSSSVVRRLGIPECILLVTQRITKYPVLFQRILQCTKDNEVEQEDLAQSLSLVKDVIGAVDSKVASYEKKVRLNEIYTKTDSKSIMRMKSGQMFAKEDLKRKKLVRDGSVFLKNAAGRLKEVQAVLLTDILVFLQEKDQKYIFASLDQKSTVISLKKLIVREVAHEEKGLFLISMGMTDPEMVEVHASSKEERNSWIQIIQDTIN
Description: Following the protocol of the RhoGEF exchange assay Biochem Kit, a nucleotide exchange experiment for AKAP-Lbc and RhoA was established. The fluorescence labelled nucleotide analogues 2′(3′)-O—(N-methylanthraniloyl)-guanosine diphosphate and 2′(3′)-O—(N-methylanthraniloyl)-guanosine triphosphate, hereinafter referred to mGDP and mGTP, were used for tracing the nucleotide exchange.
25 μl depletion buffer (100 mmol/L sodium phosphate, pH 7.4, 5 mmol/L EDTA, 200 mmol/L ammonium sulfate) with an excess of mGDP (5 mmol/L) were added to 200 μg recombinant his6-RhoA (25 μl) and incubated one hour at room temperature. Then, magnesium chloride (MgCl2) was added to a final concentration of 10 mmol/L.
By centrifugation with Vivaspin® 500 concentrator vials (MWCO 5 kDa, 10 min, 10000 rpm) and buffer (100 mmol/L sodium phosphate, pH 7.4, 100 mmol/L NaCl, protease inhibitor [cOmplete, Mini, EDTA-free protease inhibitor cocktaile]) RhoA-mGDP was washed twice and reduced to 100 μl. 1 μmol/L RhoA-mGDP and 0.5 μmol/L AKAP-Lbc DHPH in nucleotide exchange buffer (40 mmol/L Tris pH 7.5; 100 mmol/L NaCl; 20 mmol/L MgCl2, 100 μg/ml BSA) were used for the nucleotide exchange. The fluorescence measurements were performed in a micro plate reader (TECAN Safire) over a period of 15 min, whereby the fluorophore of mGDP was excited at 360 nm and the resulting fluorescence signal was determined at 440 nm.
At a concentration relation of 2 μmol/L protein and 1 μmol/L mGTP, an ideal fluorescence signal-to-noise-ratio was found in the nucleotide exchange buffer (40 mM Tris pH 7.5, 100 mmol/L NaCl, 20 mmol/L MgCl2, 100 μg/ml BSA). The fluorescence signal for mGTP was measured analogous to mGDP (λexc=360 nm; λem=440 nm) in a micro plate reader (TECAN Safire) over a period of 15 min. The experiment was performed in a 384-well plate.

[2] = test system: primary neonatal cardiomyocytes (α-sceletal muscle actin mRNA); test: Hypertrophy marker α-actin 1 mRNA by quantitative real-time PCR; type: cell-based, rat
Description: Primary neonatal cardiomyocytes were prepared as described above. The cardiomyocytes were stimulated for 24 or 48 hours with 100 μmol/L phenylephrin (PE) or 10 μmol/L isoproterenol (ISO) in absence or presence of 10 μmol/L or 50 μmol/L of compound 31413.
After 24 hours or 48 hour of stimulation, the medium was removed, and every well was washed with 2 ml phosphate buffered saline and fixed with 200 μl TRIzol. The cells were removed from each well and transferred into a 1.5 ml Eppendorf tube, respectively.
For cell breakdown, 40 μl chloroform was added to each Eppendorf tube. The broken cells were centrifuged for 15 min at 1400 g and 4° C. The supernatant containing RNA/DNA was taken, mixed with 100 μl isopropanol and centrifugated for 20 min at 1500 g and 4° C. The supernatant was discarded and the pellet was resuspended in 500 μL ethanol. The RNA from the pellet was purified by chromatography. The concentration of the RNA was determined by NANODROP.
The quantification of the hypertrophy marker α-sceletal muscle actin (α-actin 1) mRNA was performed by quantitative real-time PCR. First, the RNA was transcribed to a cDNA with a SuperScript™III First-Strand Synthesis SuperMix (Invitrogen) and random hexamer primers. The cDNA was amplified in a PCR reaction in an Applied Biosystem StepOne™ Real-Time PCR System. Glycerinealdehydephosphate dehydrogenase and NTC (no template control) was used as controls. All samples were triplicates. The following primers have been used: […]

COc1ccc(-c2coc3cc4oc(=O)c(C)c(C)c4cc23)cc1 [Compound 31413, 3-(4-methoxyphenyl)-5,6-dimethyl-furo[3,2-g]chromen-7-one]
IC50 [1]: 25.9 µM
α-actin 1 mRNA amount ([2]; PE 100 μmol/L 24 h, compound 10 or 50 μmol/L): concentration dependent decrease
relative amount of α-actin 1 mRNA ([2]; without PE stimulation): no significant change
